15 compounds from ChEMBL document CHEMBL1201862, “PubChem BioAssay data set” (2004) can be followed below.

Test systems include CAKI-1; HCT-15; MOLT-4; HOP-92; OVCAR-8; RPMI-8226; K562; SK-OV-3; HL-60; LOX IMVI; UACC-257; COLO 205; SNB-75; SK-MEL-5; TK-10; A498.
Common to all, as to assay: NCI-60 cell line screen, 48 h

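These data come from cells grown in 96-well plates and exposed to compound for 48 hours at five concentrations. At the GI50, growth is halved.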 Activity calls are given as the source filed them. Cut-off read from the data, not from the text of the source: active = GI50 up to about 1.1 µM and inactive = higher.

For `O=c1cccccc1NCCNc1cccccc1=O`, the GI50 is > 100 µM (inactive) in the assay on CAKI-1; more than 100 µM in the assay with HCT-15; > 100 µM (inactive) in the assay with MOLT-4; > 100 µM (inactive) in the assay on HOP-92; > 100 µM (inactive) with OVCAR-8; > 100 µM (inactive) in the assay with RPMI-8226. Further, the GI50 in the assay with K562, in the assay on SK-OV-3, with HL-60, in the assay with LOX IMVI, with UACC-257 and with COLO 205 was > 100 µM (inactive) in each case. Moreover, the GI50 in the assay on SNB-75 is > 10 µM (inactive).

Turning to `O=C(NCCNCCO)N/N=C/c1ccccc1`, the GI50 is more than 100 µM in the assay on HCT-15; > 100 µM (inactive) in the assay on SK-MEL-5; > 100 µM (inactive) with MOLT-4; > 100 µM (inactive) with OVCAR-8; > 100 µM (inactive) in the assay on TK-10; > 100 µM (inactive) in the assay on K562. Further, the GI50 was > 100 µM (inactive) with SK-OV-3; 79.3 µM (inactive) with HL-60; > 100 µM (inactive) in the assay with LOX IMVI; > 100 µM (inactive) in the assay with UACC-257; > 100 µM (inactive) with SNB-75.

For `COc1cc(C(C#N)NNC(=O)c2ccccc2O)ccc1O` (configuration not stated), the GI50 in the assay with CAKI-1 was 5.46 µM (inactive); in the assay with HCT-15, 4.06 µM; in the assay on SK-MEL-5 it was 9.95 µM (inactive); in the assay on MOLT-4, 6.15 µM (inactive); in the assay with HOP-92, 2.98 µM (inactive); with OVCAR-8, 5.83 µM (inactive). Further, the GI50 in the assay with TK-10 is 4.11 µM (inactive); with RPMI-8226 it was 9.64 µM (inactive); in the assay with K562 it was 0.622 µM (active); in the assay with SK-OV-3 it was 3.18 µM (inactive); with HL-60 it was 2.45 µM (inactive); in the assay on LOX IMVI it was 2.33 µM (inactive). Moreover, the GI50 in the assay with UACC-257 was 6.35 µM (inactive); with COLO 205, 28.6 µM (inactive); in the assay with SNB-75 it was 0.356 µM (active).

As for `CCCCCCCCCC(=O)CC(=O)c1ccc(O)cc1O`, the GI50 was 23.7 µM (inactive) with CAKI-1; 30.2 µM in the assay with HCT-15; 17.6 µM (inactive) in the assay with SK-MEL-5; 17.6 µM (inactive) in the assay on MOLT-4; 27.7 µM (inactive) with HOP-92; 22.6 µM (inactive) with OVCAR-8. Also, the GI50 in the assay with TK-10 was 40.8 µM (inactive); in the assay with RPMI-8226 it was 19.5 µM (inactive); with K562, 29.1 µM (inactive); with SK-OV-3, > 100 µM (inactive); with HL-60, 19 µM (inactive); in the assay on LOX IMVI it was 17.5 µM (inactive). Moreover, the GI50 in the assay with UACC-257 was 28.8 µM (inactive); in the assay with COLO 205, > 100 µM (inactive); in the assay with SNB-75, 33.6 µM (inactive).

Take `Cc1c(O)c(O)cc[n+]1C1OC(CO)C(O)C1O` (configuration not stated): the GI50 in the assay with CAKI-1 was > 100 µM (inactive); in the assay on A498, > 100 µM (inactive); in the assay with HCT-15 it was more than 100 µM; with HOP-92, > 100 µM (inactive); in the assay with OVCAR-8 it was > 100 µM (inactive); in the assay on TK-10, > 100 µM (inactive). Also, the GI50 in the assay on RPMI-8226, in the assay on K562, in the assay with SK-OV-3, in the assay with LOX IMVI, with UACC-257 and in the assay on COLO 205 was > 100 µM (inactive) each time. Also, the GI50 in the assay on SNB-75 was > 100 µM (inactive).

Regarding `CCOC(=O)C(Cc1c[nH]c2cc([N+](=O)[O-])ccc12)NS(=O)(=O)c1ccc2ccccc2c1` (configuration not stated), the GI50 in the assay on A498 was 29.2 µM (inactive); with HCT-15, 18.7 µM; in the assay with MOLT-4 it was 26 µM (inactive); with HOP-92, 19.9 µM (inactive); with OVCAR-8, 21.4 µM (inactive); in the assay on TK-10 it was 26.4 µM (inactive). The GI50 is 22 µM (inactive) in the assay with RPMI-8226; 18.1 µM (inactive) in the assay on K562; 23.4 µM (inactive) in the assay with SK-OV-3; 22.8 µM (inactive) with HL-60; 17.5 µM (inactive) in the assay on LOX IMVI; 15.3 µM (inactive) in the assay on UACC-257. The GI50 with COLO 205 was 18 µM (inactive); with SNB-75 it was 17.1 µM (inactive).

With `CCC12C=CCN3CCC4(C(=C(C(=O)OC)C1)Nc1ccccc14)[C@H]32` (some centres not stated), the GI50 was > 100 µM (inactive) with CAKI-1; 29.6 µM (inactive) in the assay with A498; 40.3 µM in the assay on HCT-15; 27.2 µM (inactive) with SK-MEL-5; 26.7 µM (inactive) in the assay with MOLT-4; 23.4 µM (inactive) in the assay with HOP-92. The GI50 with TK-10 was 68.9 µM (inactive); in the assay on K562, 18.8 µM (inactive); with SK-OV-3, 21.8 µM (inactive); in the assay on HL-60, 16 µM (inactive); with LOX IMVI it was 20.8 µM (inactive); with UACC-257, 34.4 µM (inactive). Also, the GI50 in the assay with COLO 205 is 18.4 µM (inactive); in the assay with SNB-75 it was 22 µM (inactive).

On to `Cn1cc(NC(=O)c2cc(NC(=O)CCCCCCCCC(=O)Nc3cc(C(=O)Nc4cc(C(=O)NCCC(N)N)n(C)c4)n(C)c3)cn2C)cc1C(=O)NCCC(=N)N`, for which the GI50 was 22.5 µM (inactive) in the assay with CAKI-1; 35.4 µM in the assay with HCT-15; 4.74 µM (inactive) in the assay with SK-MEL-5; 19.9 µM (inactive) with MOLT-4; 36.6 µM (inactive) in the assay with HOP-92; 21.4 µM (inactive) with OVCAR-8. The GI50 in the assay on TK-10 is 18.2 µM (inactive); with RPMI-8226, 5.35 µM (inactive); with K562, 13.4 µM (inactive); in the assay with SK-OV-3 it was 27.9 µM (inactive); in the assay with LOX IMVI, 36.9 µM (inactive); with UACC-257, 13.7 µM (inactive). Moreover, the GI50 in the assay with COLO 205 is 20 µM (inactive); with SNB-75, 18.1 µM (inactive).

Turning to `CO[C@@]12CC(=O)/C(=C(O)\C=C\c3ccccc3)C(=O)[C@]1(OC)Cc1ccccc1O2`, the GI50 with A498 is 33.3 µM (inactive); in the assay on HCT-15, 20 µM; in the assay on SK-MEL-5, 36.5 µM (inactive); with MOLT-4, 29.7 µM (inactive); in the assay on HOP-92, 48.6 µM (inactive); in the assay with OVCAR-8 it was 22.3 µM (inactive). For the same compound, the GI50 in the assay with TK-10 was 42.8 µM (inactive); in the assay with K562, 33.7 µM (inactive); in the assay with SK-OV-3, 54 µM (inactive); in the assay with LOX IMVI, 32.3 µM (inactive); with UACC-257, 30.1 µM (inactive); in the assay on COLO 205, 47.5 µM (inactive). In addition, in the assay on SNB-75, the GI50 was 77.1 µM (inactive).

As to `CCNC1C2(CCCCC2)NC(=O)C12CCCCC2` (configuration not stated), the GI50 with CAKI-1 was > 100 µM (inactive); in the assay on A498, > 100 µM (inactive); in the assay with HCT-15, more than 100 µM; in the assay with SK-MEL-5 it was > 100 µM (inactive); in the assay on MOLT-4, > 100 µM (inactive); in the assay on OVCAR-8, > 100 µM (inactive). Further, the GI50 with TK-10, in the assay with RPMI-8226, in the assay on K562, with SK-OV-3, in the assay with HL-60 and in the assay on UACC-257 was > 100 µM (inactive) throughout. In the assay with SNB-75, the GI50 is > 100 µM (inactive).

Regarding `Cc1cc(C)n(-c2ccnc3cc(Cl)ccc23)n1`, the GI50 in the assay on A498 is > 100 µM (inactive); with HCT-15, more than 100 µM; with SK-MEL-5, > 100 µM (inactive); in the assay on MOLT-4, > 100 µM (inactive); in the assay with HOP-92, > 100 µM (inactive); in the assay with OVCAR-8, > 100 µM (inactive). Moreover, the GI50 in the assay with TK-10, in the assay on RPMI-8226, in the assay with K562, in the assay with SK-OV-3, with HL-60 and in the assay with LOX IMVI was > 100 µM (inactive) in each case. The GI50 in the assay with UACC-257, in the assay with COLO 205 and in the assay with SNB-75 was > 100 µM (inactive) in each case.

For the compound `C/N=c1\ss/c(=N\C(=S)N(C)C)n1C`, the GI50 was > 100 µM (inactive) in the assay with CAKI-1; > 100 µM (inactive) in the assay with A498; more than 100 µM in the assay with HCT-15; > 100 µM (inactive) with SK-MEL-5; > 100 µM (inactive) in the assay with MOLT-4; > 100 µM (inactive) in the assay on HOP-92. Further, the GI50 in the assay with OVCAR-8 is > 100 µM (inactive); in the assay with TK-10, 41.1 µM (inactive); in the assay on RPMI-8226, > 100 µM (inactive); in the assay with K562, > 100 µM (inactive); with SK-OV-3, > 100 µM (inactive); with HL-60 it was > 100 µM (inactive). Moreover, the GI50 with UACC-257 and in the assay on SNB-75 was > 100 µM (inactive) in each case.

As to `COc1cc2ccc3c4cc(OC)c(OC(C)C)cc4cnc3c2cc1OC`, the GI50 with CAKI-1 is > 100 µM (inactive); with HCT-15 it was more than 100 µM; in the assay on SK-MEL-5, > 100 µM (inactive); in the assay on MOLT-4 it was > 100 µM (inactive); in the assay with HOP-92 it was > 100 µM (inactive); with OVCAR-8, > 100 µM (inactive). The GI50 in the assay on TK-10, with RPMI-8226, with K562, in the assay with SK-OV-3, in the assay with HL-60 and in the assay on LOX IMVI was > 100 µM (inactive) in each case. Also, the GI50 in the assay on UACC-257, in the assay on COLO 205 and with SNB-75 was > 100 µM (inactive) in each case.

Take `OCc1ccc(C2CC(c3ccco3)=NN2c2ccccc2)o1` (configuration not stated): the GI50 with HCT-15 is more than 100 µM; in the assay with SK-MEL-5, > 100 µM (inactive); in the assay on MOLT-4 it was > 100 µM (inactive); in the assay on OVCAR-8, > 100 µM (inactive); with TK-10 it was > 100 µM (inactive); with RPMI-8226, > 100 µM (inactive). For the same compound, the GI50 is 86.3 µM (inactive) in the assay with K562; > 100 µM (inactive) in the assay on HL-60; > 100 µM (inactive) with LOX IMVI; > 100 µM (inactive) in the assay on COLO 205; 20 µM (inactive) in the assay on SNB-75.

Take `COC(=O)C1=C(C)N(NC(=O)c2cccc(Cl)c2)C(C)(O)C12CCOC2=O` (configuration not stated): the GI50 is > 100 µM (inactive) in the assay on CAKI-1; > 100 µM (inactive) in the assay on A498; more than 100 µM in the assay with HCT-15; > 100 µM (inactive) in the assay on SK-MEL-5; > 100 µM (inactive) in the assay on MOLT-4; > 100 µM (inactive) with OVCAR-8. Moreover, the GI50 in the assay on RPMI-8226, in the assay with K562, in the assay with SK-OV-3, in the assay on LOX IMVI, in the assay on UACC-257 and with SNB-75 was > 100 µM (inactive) throughout.
